Converted amounts (≈) assume the structure as drawn. Read-outs that look alike come from different tables or passages of the source.
Legend:
[1] = Pharmacokinetic evaluation in dogs after a 10 mg/kg dose; details: dog, plasma; for half-life: t1/2 (biological half life); for bioavailability: % ABS (percent absorbance), from AUC (absolute bioavailability); for Cmax: Cmax (maximum concentration in blood); for Tmax: Tmax (time to achieve maximum concentration in blood)
[2] = system: Haemophilus influenzae (ATCC 43095); assay: In-vivo acute mouse protection assay; parameters: species or system Haemophilus influenzae; female Swiss albino mice; details: dosed 1 and 5 h post-infection, observed 7 days, read-out: ED50
Procedure: An acute mouse protection test was conducted on ten mice with each of three concentrations of selected compounds of the invention. Each concentration was a four-fold dilution of the previous concentration. The initial concentration will vary with the microorganism with which the mouse is challenged.
The acute mouse protection test was conducted on female, Swiss albino mice, 18-20 grams in weight. […] To check the potency of the inoculum, a titration of the indicated test organism was carried out in control animals. The titration determines the LD50 for a particular microorganism. The treatment groups of animals were dosed orally, by gavage, or subcutaneously with the test compounds at 1 and 5 hours post-infection and observed for 7 days. The ED50 were calculated using the mortality data collected.

[3] = system: Pseudomonas aeruginosa K799/WT; assay: In-vitro antimicrobial activity primary screen (agar dilution MIC); format: cell-based; details: Pseudomonas aeruginosa K799/WT, BHI agar, 20-24 h
In short: (§1)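 Twelve plates of successive aqueous compound dilutions in Brain Heart Infusion agar were spot-inoculated by Steers replicator with 1:100 culture dilutions (1:10 for slow growers such as Streptococcus) and incubated at 35-37° C for 20-24 hours. MIC was the lowest concentration giving no growth, slight haze or sparse colonies.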

[4] = system: Pseudomonas aeruginosa K799/61; assay: as above; format: cell-based; details: Pseudomonas aeruginosa K799/61, BHI agar, 20-24 h
In short: as §1

[5] = system: Staphylococcus aureus 45; assay: as above; format: cell-based; details: BHI agar, 20-24 h, read-out: MIC
In short: as §1

[6] = system: Escherichia coli H560; assay: as above; format: cell-based; details: Escherichia coli H560, BHI agar, 20-24 h
In short: as §1

[7] = system: Micrococcus luteus ATCC 9341; assay: as above; format: cell-based; details: Micrococcus luteus, ATCC9341, 24 h, BHI agar, 20-24 h
In short: as §1

[8] = system: Escherichia coli DC-2; assay: as above; format: cell-based; details: Escherichia coli DC-2, BHI agar, 20-24 h
In short: as §1

[9] = system: Pseudomonas aeruginosa BMH10; assay: as above; format: cell-based; details: BHI agar, 20-24 h
In short: as §1

[10] = system: Staphylococcus aureus A5177; assay: as above; format: cell-based; details: Staphylococcus aureus, A5177, 24 h, Staphylococcus aureus A5177; BHI agar, 20-24 h
In short: as §1

[11] = system: Escherichia coli JUHL; assay: as above; format: cell-based; details: Escherichia coli JUHL, BHI agar, 20-24 h
In short: as §1

[12] = system: Micrococcus luteus ATCC 4698; assay: as above; format: cell-based; details: Micrococcus luteus, ATCC4698, 24 h, BHI agar, 20-24 h
In short: as §1

[13] = system: Pseudomonas aeruginosa A5007; assay: as above; format: cell-based
In short: as §1

[14] = system: Staphylococcus epidermidis 3519; assay: as above; format: cell-based; details: BHI agar, 20-24 h, read-out: MIC
In short: as §1

[15] = system: Escherichia coli SS; assay: as above; format: cell-based; details: Escherichia coli, 24 h, BHI agar, 20-24 h
In short: as §1

[16] = system: Enterococcus faecium ATCC 8043; assay: as above; format: cell-based; details: Enterococcus faecium, ATCC8043, 24 h
In short: as §1

[17] = system: Acinetobacter SP CMX 669; assay: as above; format: cell-based; details: Acinetobacter, SPCMX669, 24 h, Acinetobacter SP CMX 669; BHI agar, 20-24 h
In short: as §1

[18] = system: Providencia stuartii CMX 640; assay: as above; format: cell-based
In short: as §1

[19] = system: Pseudomonas cepacia 2961; assay: as above; format: cell-based; details: BHI agar, 20-24 h
In short: as §1

[20] = system: Staphylococcus aureus ATCC 6538P; assay: as above; format: cell-based; details: Staphylococcus aureus, ATCC6538P, 24 h, BHI agar, 20-24 h
In short: as §1

[21] = system: Streptococcus pyrogenes 2548 INDUC; assay: as above; format: cell-based; details: BHI agar, 20-24 h
In short: as §1

[22] = system: Enterobacter aerogenes ATCC 13048; assay: as above; format: cell-based; details: Klebsiella aerogenes, Enterobacter aerogenes ATCC 13048, BHI agar, 20-24 h
In short: as §1

[23] = system: Streptococcus pyrogenes EES61; assay: as above; format: cell-based; details: BHI agar, 20-24 h
In short: as §1

[24] = system: Streptococcus agalactiae CMX 508; assay: as above; format: cell-based; details: Streptococcus agalactiae, CMX508, 24 h, BHI agar, 20-24 h
In short: as §1

[25] = system: Staphylococcus aureus 45 RAR2; assay: as above; format: cell-based; details: Staphylococcus aureus, 45RAR2, 24 h, BHI agar, 20-24 h
In short: as §1

[26] = system: Streptococcus bovis A5169; assay: as above; format: cell-based; details: Streptococcus equinus, BHI agar, 20-24 h
In short: as §1

[27] = system: Klebsiella pneumoniae ATCC 8045; assay: as above; format: cell-based; details: ATCC8045; Klebsiella pneumoniae ATCC 8045; BHI agar, 20-24 h; read-out: MIC
In short: as §1

[28] = iv, IV 10 mg/kg, HPLC (parent drug)
[29] = iv, IV 10 mg/kg, microbiological assay
[30] = po, oral 10 mg/kg, HPLC (parent drug)
[31] = po, oral 10 mg/kg, microbiological assay

Compound | half-life [1, 28] | half-life [1, 29] | bioavailability [1, 30] | bioavailability [1, 31] | Cmax [1, 30] | Cmax [1, 31] | Tmax [1, 30] | half-life [1, 30] | half-life [1, 31] | MIC [5] | MIC [7] | MIC [10] | MIC [12] | MIC [14] | MIC [15] | MIC [16] | MIC [17] | MIC [20] | MIC [24] | MIC [25] | also measured
CC[C@H]1OC(=O)[C@H](C)[C@@H](O[C@H]2C[C@@](C)(OC)[C@@H](O)[C@H](C)O2)[C@H](C)[C@@H](O[C@@H]2O[C@H](C)C[C@H](N(C)C)[C@H]2O)[C@](C)(O)C[C@@H](C)[C@@H]2O[C@@]1(C)[C@@H](O)[C@H]2C [Example 4, (9S,11S)-9-Deoxo-12-deoxy-9,12-epoxyerythromycin A] | 2.9 h | 2.9 h | 69% | 75% | 3900 ng/mL | 4300 ng/mL | 0.25 h | 2.9 h | 2.7 h | 0.2 µg/mL (≈ 0.279 µM) | 0.05 µg/mL (≈ 0.0696 µM) | 3.1 µg/mL (≈ 4.32 µM) | 0.1 µg/mL (≈ 0.139 µM) | 0.2 µg/mL (≈ 0.279 µM) | 0.2 µg/mL (≈ 0.279 µM) | 0.1 µg/mL (≈ 0.139 µM) | 3.1 µg/mL (≈ 4.32 µM) | 0.2 µg/mL (≈ 0.279 µM) | 0.05 µg/mL (≈ 0.0696 µM) | 0.39 µg/mL (≈ 0.543 µM) | Tmax [1, 31]: 0.4 h; ED50 ([2]; ATCC43095, 168 h, oral): 238 mg/kg; ED50 ([2]; ATCC43095, sc, 168 h, subcutaneous): 11.3 mg/kg; MIC ([3]; Pseudomonas aeruginosa, K799/WT, 24 h): 100 µg/mL (≈ 139 µM); MIC ([4]; read-out: MIC): 0.39 µg/mL (≈ 0.543 µM); MIC ([6]; Escherichia coli, H560, 24 h): 25 µg/mL (≈ 34.8 µM); MIC ([8]; Escherichia coli, DC2, 24 h): 50 µg/mL (≈ 69.6 µM); MIC ([9]; Pseudomonas aeruginosa, BMH10, 24 h): 50 µg/mL (≈ 69.6 µM); MIC ([11]; Escherichia coli, 24 h): 25 µg/mL (≈ 34.8 µM); MIC ([13]; Pseudomonas aeruginosa, A5007, 24 h): > 100 µg/mL; MIC ([18]; Providencia stuartii, CMX640, 24 h): > 100 µg/mL; MIC ([19]; Burkholderia cepacia, 2961, 24 h): > 100 µg/mL; MIC ([21]; Streptococcus, 2548INDUC, 24 h): 3.1 µg/mL (≈ 4.32 µM); MIC ([22]; ATCC13048, 24 h): 50 µg/mL (≈ 69.6 µM); MIC ([23]; read-out: MIC): 0.01 µg/mL (≈ 0.0139 µM); MIC ([26]; A5169, 24 h): 0.02 µg/mL (≈ 0.0279 µM)
CC[C@H]1OC(=O)[C@H](C)[C@@H](O[C@H]2C[C@@](C)(OC)[C@@H](O)[C@H](C)O2)[C@H](C)[C@@H](O[C@@H]2O[C@H](C)C[C@H](N(C)C)[C@H]2O)[C@](C)(O)C[C@@H](C)[C@@H]2O[C@@]1(C)C(=O)[C@H]2C [Example 5, (9S)-9-Deoxo-11,12-dideoxy-9,12-epoxy-11-oxoerythromycin A] | 12.2 h | 14.7 h | 81% | 76% | 2500 ng/mL | 2500 ng/mL | 4 h | 10.2 h | 10.5 h | 0.1 µg/mL (≈ 0.14 µM) | < 0.05 µg/mL | 3.1 µg/mL (≈ 4.33 µM) | 0.1 µg/mL (≈ 0.14 µM) | 0.2 µg/mL (≈ 0.279 µM) | 0.2 µg/mL (≈ 0.279 µM) | 0.1 µg/mL (≈ 0.14 µM) | 12.5 µg/mL (≈ 17.5 µM) | 0.39 µg/mL (≈ 0.545 µM) | 0.1 µg/mL (≈ 0.14 µM) | 0.2 µg/mL (≈ 0.279 µM) | MIC [27]: > 100 µg/mL; MIC ([3]; read-out: MIC): 100 µg/mL (≈ 140 µM); MIC ([4]; Pseudomonas aeruginosa, K799/61, 24 h): 1.56 µg/mL (≈ 2.18 µM); MIC ([6]; read-out: MIC): 100 µg/mL (≈ 140 µM); MIC ([8]; DC2, read-out: MIC): > 100 µg/mL; MIC ([9]; read-out: MIC): 100 µg/mL (≈ 140 µM); MIC ([11]; read-out: MIC): 100 µg/mL (≈ 140 µM); MIC ([13]; Pseudomonas aeruginosa A5007, BHI agar, 20-24 h, read-out: MIC): > 100 µg/mL; MIC ([18]; CMX640, Providencia stuartii CMX 640, BHI agar, 20-24 h, read-out: MIC): > 100 µg/mL; MIC ([19]; Burkholderia cepacia, read-out: MIC): 100 µg/mL (≈ 140 µM); MIC ([21]; read-out: MIC): 1.56 µg/mL (≈ 2.18 µM); MIC ([22]; ATCC13048, read-out: MIC): > 100 µg/mL; MIC ([23]; Streptococcus, EES61, 24 h): < 0.05 µg/mL; MIC ([26]; read-out: MIC): 0.1 µg/mL (≈ 0.14 µM)
